Measured values reported in patent publication US9944607B2, “Thiohydantoin derivatives and uses thereof” (Whitehead Institute for Biomedical Research, priority 2012, dated 2018).
pIC50: −log10 of the molar value. Converted amounts (≈) assume the structure as drawn. Read-outs that look alike come from different tables or passages of the source.

Assays:
Candida albicans CaCi-2 = assay: Primary assay: C. albicans CaCi-2 growth inhibition (Alamar Blue); assay type: cell-based; details: for IC50: read-out: Growth Inhibition Activity, IC50 (μM), C. albicans (n = 3) CaCi-2
C. glabrata (ATCC 2001) = assay: Secondary C. glabrata inhibition in glycerol media (OD600); assay type: cell-based, Candida glabrata; details: for pIC50 / IC50: Nakaseomyces glabratus; for IC50: read-out: Growth Inhibition Activity, IC50 (μM), C. glabrata (n = 3) On glycerol
From the text: (§1) Cell Lines. • Candida albicans CaCi-2; a drug-resistant clinical isolate was provided by the Whitehead Institute (Redding et al., Clin. Infect. Dis. 1994, 18(2):240-2). This strain was used for the primary assay. • Candida albicans CaCi-17; a strongly drug-resistant clinical isolate was provided by the Whitehead Institute (Redding et al., Clin. Infect. Dis. 1994, 18(2):240-2). This strain was used for the primary assay • Saccharyomyces cerevisiae W303-1a (ATCC 208352); a well-characterized Saccharomyces strain used for determination of glycolytic vs. respiratory metabolism, as well as in the mitochondrial disruption assay. • Candida glabrata (ATCC 2001); used for determination of glycolytic vs. respiratory metabolism. • NIH-3T3 mammalian fibroblasts (ATCC; CRL no.1658); used for mammalian toxicity assays. […]
(§2) Saccharomyces, while not a major human pathogen, is a useful lab model with well-developed genetic tools available. Candida glabrata is an increasingly prominent clinical problem for immune-compromised patients but with fewer genetic tools available with which to study it. These organisms can utilize alternative metabolic pathways to support growth and survival depending on the carbon source. By comparing the concentration-dependent inhibition of yeast growth in glycerol relative to glucose media, a quantitative assessment of a compound's ability to disrupt respiration can be determined. […].
Clear, flat bottom, black 384-well plates (Corning Catalog no. 3712BC; Lot no. 35808016); Amphotericin B (Sigma Catalog no. A2411) 15 mM stock solution in DMSO; Pen/Strep (Gibco Catalog no. 10378-016; Lot no21040170) 100× in PBS.
Synthetic defined growth medium. Complete Supplement Mixture; (Sunrise Science, Catalog No. 1001-100); Yeast Nitrogen Base without ammonium sulfate (MP Biomedicals, Catalog No. 4027-012); Glycerol (Sigma Catalog No. G-9012). • Prepare medium by dissolving 0.79 g Complete Supplement Mixture and 1.7 g Yeast Nitrogen Base in 800 mL water. • Add 20 mL of glycerol. Adjust final volume to 1000 mL. Filter sterilize.
(§3) Fungal Inoculum. Test Strains: C. glabrata (ATCC 2001) and Saccharomyces cerevisiae W303. • Inoculate 100 μL of yeast from cryopreserved stock into 250 mL shaker flask containing 20 mL growth medium. Shake at 30° C. overnight (about 16 hours). • Read OD 600 of 1 mL of fungal culture in a cuvette using a standard optical density reader (Eppendorf BioPhotometer Plus), with growth medium as a background blank. • Dilute to desired volume of fungal inoculum to produce an OD600 reading of 0.005 (S. cerevisiae) or 0.004 (C. glabrata).
(§4) Procedures • Use a Thermo Combi nL to dispense 20 μL/well of assay media into all wells. • Add 2 μL of Amphotericin B to control wells. • Pin 100 nL of test compound from compound plates into assay plates using a CyBi-Well pin tool. • Dispense 20 μL/well of culture into the assay media in all wells. • Incubate the plates in a humidified (90% humidity) Liconic incubator at 37° C. without agitation for 48 hours. • Shake plates briefly. • Read OD600 of wells on a standard plate reader as measure of relative fungal growth. Envision (Perkin Elmer) plate reader settings: Ex Photometric 600, Top read. Secondary Glucose Assay Protocol (AID 623971, 623967, 624013, 624025) Materials and Reagents

[1] = test system: Saccharomyces cerevisiae W303; assay: Secondary S. cerevisiae inhibition in glucose media (OD600); assay type: cell-based; details: Saccharomyces cerevisiae; for IC50: read-out: Growth Inhibition Activity, IC50 (μM), S. cerevisiae (n = 3) On glucose
From the text: as §1, §2, §4
Clear, flat bottom, black 384-well plates (Corning, Catalog No. 3712BC; Lot No. 35808016); Amphotericin B (Sigma, Catalog no. A2411) 15 mM stock solution in DMSO; Pen/Strep (Gibco, Catalog No. 10378-016; Lot no21040170) 100× in PBS.
Synthetic defined growth medium. Complete Supplement Mixture; (Sunrise Science, Catalog No. 1001-100); Yeast Nitrogen Base without ammonium sulfate (MP Biomedicals, Catalog No. 4027-012); Glucose (Sigma, Catalog No. G7021). • Prepare medium by dissolving 0.79 g of Complete Supplement Mixture and 1.7 g of Yeast Nitrogen Base in 800 mL of water. • Add 20 g of glucose. Adjust final volume to 1000 mL. Filter sterilize.
as §3, with “Inoculate […] of yeast” for “Inoculate 100 μL of yeast”, “stock into a 250 mL” for “stock into 250 mL”, “20 mL of growth medium.” for “20 mL growth medium.”
as §4, with “read. 4.5.” for “read.”, “Mitochondrial Disruption” for “Glucose”, “Assay” for “Assay Protocol”, “No. 624062” for “623971, 623967, 624013, 624025) Materials”, “624068)” for “Reagents”

[2] = Solubility in PBS pH 7.4 with 1% DMSO; details: for solubility at 24 h: pH 7.4, aqueous buffer, kinetic from dmso stock; for PBS Solubility: PBS pH 7.4 with 1% DMSO, 24 hours, room temperature
In short: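 Compounds at 100 μM in duplicate in PBS pH 7.4 containing 1% DMSO, shaken 24 hours at room temperature. Concentration measured by UPLC-MS with SIR detection, fitted to a two-point calibration from matching 100% DMSO samples.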

[3] = phosphate buffered saline with 1% DMSO

**Q.** Which results are given for `CCOC(=O)N1C(=O)C2(CCCCC2)N(c2ccc(F)cc2)C1=S` [CID 56604860, Ethyl 1-(4-fluorophenyl)-4-oxo-2-thioxo-1,3-diazaspiro[4.5]decane-3-carboxylate]?
**A.** Fold Selective (Anti-target IC50/Target IC50), fibroblast toxicity vs CaCi-2 growth inhibition (Candida albicans CaCi-2; Table 12): >650x; Reduction in potency when glucose is available instead of glycerol, C. glabrata (C. glabrata (ATCC 2001)): greater than 250 fold; pIC50 (C. glabrata (ATCC 2001); ATCC2001, read-out: Growth inhibition of C. glabrata on glycerol IC50): 7.96; Fold Selective (Glucose IC50/Glycerol IC50), C. glabrata (C. glabrata (ATCC 2001); Table 13): >272x; pIC50 ([1]; W303, read-out: Growth inhibition of S. cerevisiae on glucose IC50): < 5.52; solubility at 24 h [2, 3]: 1.1 µM (≈ 0.385 µg/mL)

**Q.** For `CCOC(=O)N1C(=O)C2(CCCCC2)N(c2ccc(C)cc2)C1=S` [compound 3889161], which IC50 (Candida albicans CaCi-2; Candida albicans, CACI2, 48 h) is on record?
**A.** The IC50 was 0.3 µM.

**Q.** And the IC50 (C. glabrata (ATCC 2001); ATCC2001, 48 h)?
**A.** The IC50 was 0.041 µM.

**Q.** What about the IC50 ([1]; W303, 48 h) of the same compound?
**A.** The IC50 was > 3 µM.

**Q.** What about the “PBS Solubility” value ([2]; Table 4) of the same compound?
**A.** Its value is <1.0 µM.

**Q.** What about the “PBS Solubility” value ([2]; Table 5) of the same compound?
**A.** The value was <1.0 µM.

**Q.** What about the “PBS Solubility” value ([2]; Table 6) of the same compound?
**A.** Its value is <1.0 µM.

**Q.** And the “PBS Solubility” value ([2]; Table 7)?
**A.** The value was <1.0 µM.

**Q.** What about the solubility at 24 h [2, 3] of the same compound?
**A.** Its solubility at 24 h is < 1 µM.

**Q.** What does the source list for `CCOC(=O)N1C(=O)C2(CCCCC2)N(c2cccc(C)c2)C1=S` [compound 56604823]?
**A.** IC50 (Candida albicans CaCi-2; Candida albicans, CACI2, Table 4, n = 3, 48 hours, tested up to 26 μM): 0.2 µM; IC50 (C. glabrata (ATCC 2001); ATCC2001, Table 8, n = 3, glycerol media, 48 hours, tested up to 3 μM): 0.034 µM; IC50 ([1]; W303, Table 8, n = 3, glucose media, 48 hours, tested up to 3 μM): > 3 µM; solubility at 24 h [2, 3]: 2.6 µM (≈ 0.901 µg/mL)

**Q.** What does the source list for `C/C=C/C1[C@H]2C[C@@H](C)CC[C@@H]2C(C)=C[C@H]1C(=O)c1c(O)c(-c2ccc(O)cc2)c[nH]c1=O` (stereo partly shown) [ilicicolin H, reference compound]?
**A.** pIC50 (Candida albicans CaCi-2; Candida albicans, CACI2, Tables 9, 10, 12, AID 623899, read-out: C. albicans CaCi-2 growth inhibition IC50): < 5.52; pIC50 (C. glabrata (ATCC 2001); ATCC2001, figure legends and Tables 9, 10, 13, AID 623965, read-out: Growth inhibition of C. glabrata on glycerol IC50): 5.59; pIC50 ([1]; W303, figure legends and Tables 9, 10, 13, AID 623971, read-out: Growth inhibition of S. cerevisiae on glucose IC50): < 5.52; solubility at 24 h [2]: < 1 µM
